Laboratory results reported in paper PMC5750218, “Protein-inspired antibiotics active against vancomycin- and daptomycin-resistant bacteria” (Nature Communications, 2018).
Converted amounts (≈) assume the structure as drawn.

Tests used:
Assay in all cases: microbe, parasite or virus in culture
[1] = test system: Bacillus subtilis ATCC 6633; assay type: cell-based; conditions: for Ac2Kaa concentration required to neutralise MIC activity / MIC: ATCC 6633, 48 h; for Molar excess of Ac2Kaa ligand required to antagonise antibacterial activity: [ligand]/[antibiotic], B. subtilis ATCC 6633, 24 h
Experimental: All compounds were dissolved in H2O. Bacillus subtilis ATCC® 6633™ NRS-231 was cultured in MHB at 37 °C for 48 h. A sample of each culture was then diluted 40-fold in fresh MHB and incubated at 37 °C for 18 h. Compounds were added to each row of 96-well NBS plates (NBS, Corning 3641), in duplicate. The tripeptide N,N΄-diacetyl-L-Lys-D-Ala-D-Ala was serially diluted twofold across the compound-containing wells from 6400 to 3 µg mL^−1. To this the resultant mid-log phase cultures were diluted to the final concentration of 5 × 10^5 CFU mL^−1, then added to wells of the compound-containing plates. All the plates were covered and incubated at 37 °C for 24 h.

[2] = test system: Methicillin-resistant S. aureus ATCC 43300; conditions: ATCC 43300, 24 h
Experimental: (§1) Antimicrobial activity of compounds was tested against a number of bacterial strains by broth microdilution (BMD) assay with MIC determination, including S. aureus (MSSA ATCC® 29213™, MRSA ATCC® 43300™, VISA NARSA NRS1, VISA NARSA NRS4), Streptococcus pneumoniae (MDR ATCC® 700677™) and Enterococcus faecium (MDR VanA ATCC® 51559™). ATCC strains were sourced from the American Type Culture Collection and NRS strains from NARSA (Network on Antimicrobial Resistance in S. aureus) via BEI Resources (www.beiresources.org). All compounds were prepared to 160 µg mL^−1 solution in water from a stock solution of 1 mM concentration.
[…] […] Standards ranged from 64 to 0.03 µg mL^−1 and compounds from 8 to 0.003 µg mL^−1 with final assay volumes of 100 µL per well. Gram-positive bacteria were cultured in Mueller Hinton broth (MHB) (Bactolaboratories, Cat. no. 211443) at 37 °C overnight. A sample of each culture was then diluted 40-fold in fresh MHB and incubated at 37 °C for 2–3 h. […] All the plates were covered and incubated at 37 °C for 24 h. MICs were the lowest concentration showing no visible growth.

[3] = test system: Multi-drug-resistant S. pneumoniae ATCC 700677; conditions: ATCC 700677
Experimental: as §1
(§2) The compounds, along with standard antibiotics were serially diluted twofold across the wells of 96-well non-binding surface (NBS) polystyrene plates (Corning 3641). […] Standards ranged from 64 to 0.03 µg mL^−1 and compounds from 8 to 0.003 µg mL^−1 with final assay volumes of 100 µL per well. Gram-positive bacteria were cultured in Mueller Hinton broth (MHB) (Bactolaboratories, Cat. no. 211443) at 37 °C overnight. A sample of each culture was then diluted 40-fold in fresh MHB and incubated at 37 °C for 2–3 h. […] All the plates were covered and incubated at 37 °C for 24 h. MICs were the lowest concentration showing no visible growth.

[4] = test system: Vancomycin-intermediate S. aureus NRS1; conditions: Vancomycin-intermediate NRS1
Experimental: as §1, §2

[5] = test system: Vancomycin-resistant (VanA) Enterococcus faecium ATCC 51559; conditions: ATCC 51559
Experimental: as §1, §2

SMILES | Ac2Kaa concentration required to neutralise MIC activity [1] [µg/mL] | MIC [1] [µg/mL] | Molar excess of Ac2Kaa ligand required to antagonise antibacterial activity [1] | MIC MRSA [2] [µg/mL] | MIC MDR S.P. [3] [µg/mL] | MIC VISA [4] [µg/mL] | MIC VRE [5] [µg/mL]
CCCCCCCCCCC(=O)NCC(=O)N[C@@H](CO)C(=O)N[C@@H](CCCCN)C(=O)N[C@@H](CCCCN)C(=O)N[C@@H](CCCCN)C(=O)N[C@@H](CCCCNC(=O)[C@H]1NC(=O)[C@H]2NC(=O)[C@H](NC(=O)[C@@H]3NC(=O)[C@H](CC(N)=O)NC(=O)[C@H](NC(=O)[C@@H](CC(C)C)NC)[C@H](O)c4ccc(c(Cl)c4)Oc4cc3cc(c4O[C@@H]3O[C@H](CO)[C@@H](O)[C@H](O)[C@H]3O[C@H]3C[C@](C)(N)[C@H](O)[C@H](C)O3)Oc3ccc(cc3Cl)[C@H]2O)c2ccc(O)c(c2)-c2c(O)cc(O)cc21)C(=O)O [Compound 39, nC10CO-GSKKK-K-(Vancomycin)-OH] | 400 | 0.06 (≈ 0.0264 µM) | 30,569 |  |  |  | 
CN[C@H](CC(C)C)C(=O)N[C@H]1C(=O)N[C@@H](CC(N)=O)C(=O)N[C@H]2C(=O)N[C@H]3C(=O)N[C@H](C(=O)N[C@H](C(=O)NCCCC[C@H](NC(=O)[C@H](CCCCN)NC(=O)[C@H](CCCCN)NC(=O)c4ccc(Oc5ccccc5)cc4)C(=O)O)c4cc(O)cc(O)c4-c4cc3ccc4O)[C@H](O)c3ccc(c(Cl)c3)Oc3cc2cc(c3O[C@@H]2O[C@H](CO)[C@@H](O)[C@H](O)[C@H]2O[C@H]2C[C@](C)(N)[C@H](O)[C@H](C)O2)Oc2ccc(cc2Cl)[C@H]1O [Compound 41, POB-KK-K-(Vancomycin)-OH] | 1.56 | 0.06 (≈ 0.0296 µM) | 104 |  |  |  | 
CNC(=O)[C@H](CCCCNC(=O)[C@H]1NC(=O)[C@H]2NC(=O)[C@H](NC(=O)[C@@H]3NC(=O)[C@H](CC(N)=O)NC(=O)[C@H](NC(=O)[C@@H](CC(C)C)NC)[C@H](O)c4ccc(c(Cl)c4)Oc4cc3cc(c4O[C@@H]3O[C@H](CO)[C@@H](O)[C@H](O)[C@H]3O[C@H]3C[C@](C)(N)[C@H](O)[C@H](C)O3)Oc3ccc(cc3Cl)[C@H]2O)c2ccc(O)c(c2)-c2c(O)cc(O)cc21)NC(=O)[C@H](CCCN)NC(=O)[C@H](CCCN)NC(=O)[C@H](CCCCNC(=O)c1ccc(Oc2ccccc2)cc1)NC(=O)c1ccc(Oc2ccccc2)cc1 [Compound 34, POB2K-Orn-Orn-K(Vancomycin)-NHMe] |  |  |  | <0.003 | <0.003 | 0.0185 (≈ 0.00791 µM) | 0.5 (≈ 0.214 µM)
CN[C@H](CC(C)C)C(=O)N[C@H]1C(=O)N[C@@H](CC(N)=O)C(=O)N[C@H]2C(=O)N[C@H]3C(=O)N[C@H](C(=O)N[C@H](C(=O)NCCCC[C@H](NC(=O)[C@H](CCCCN)NC(=O)[C@H](CCCCN)NC(=O)[C@H](CCCCN)NC(=O)[C@H](CCCCNC(=O)c4ccc(Oc5ccccc5)cc4)NC(=O)c4ccc(Oc5ccccc5)cc4)C(=O)O)c4cc(O)cc(O)c4-c4cc3ccc4O)[C@H](O)c3ccc(c(Cl)c3)Oc3cc2cc(c3O[C@@H]2O[C@H](CO)[C@@H](O)[C@H](O)[C@H]2O[C@H]2C[C@](C)(N)[C@H](O)[C@H](C)O2)Oc2ccc(cc2Cl)[C@H]1O [Compound 42, POB2K-KKK-K-(Vancomycin)-OH] | 1600 | ≤ 0.004 | 131,225 |  |  |  | 
CNC(=O)[C@H](CCCCNC(=O)[C@H]1NC(=O)[C@H]2NC(=O)[C@H](NC(=O)[C@@H]3NC(=O)[C@H](CC(N)=O)NC(=O)[C@H](NC(=O)[C@@H](CC(C)C)NC)[C@H](O)c4ccc(c(Cl)c4)Oc4cc3cc(c4O[C@@H]3O[C@H](CO)[C@@H](O)[C@H](O)[C@H]3O[C@H]3C[C@](C)(N)[C@H](O)[C@H](C)O3)Oc3ccc(cc3Cl)[C@H]2O)c2ccc(O)c(c2)-c2c(O)cc(O)cc21)NC(=O)[C@H](CCCCN)NC(=O)[C@H](CCCN)NC(=O)[C@H](CCCCNC(=O)c1ccc(Oc2ccccc2)cc1)NC(=O)c1ccc(Oc2ccccc2)cc1 [Compound 33, POB2K-Orn-K-K(Vancomycin)-NHMe] |  |  |  | <0.003 | 0.007 (≈ 0.00297 µM) | 0.125 (≈ 0.0531 µM) | 1.5 (≈ 0.637 µM)
CN[C@H](CC(C)C)C(=O)N[C@H]1C(=O)N[C@@H](CC(N)=O)C(=O)N[C@H]2C(=O)N[C@H]3C(=O)N[C@H](C(=O)N[C@H](C(=O)NCCCC[C@H](NC(=O)[C@H](CCCCN)NC(=O)[C@H](CCCCN)NC(=O)[C@H](CCCCN)NC(=O)c4ccc(Oc5ccccc5)cc4)C(=O)O)c4cc(O)cc(O)c4-c4cc3ccc4O)[C@H](O)c3ccc(c(Cl)c3)Oc3cc2cc(c3O[C@@H]2O[C@H](CO)[C@@H](O)[C@H](O)[C@H]2O[C@H]2C[C@](C)(N)[C@H](O)[C@H](C)O2)Oc2ccc(cc2Cl)[C@H]1O [Compound 40, POB-KKK-K-(Vancomycin)-OH] | 12.5 | 0.03 (≈ 0.0139 µM) | 916 |  |  |  | 
